Reference: patent US11337971B2, “Dopamine D3 receptor selective antagonists/partial agonists and uses thereof” (THE UNITED STATES OF AMERICA, AS REPRESENTED BY THE …, priority 2018, dated 2022)
“And” between values parts separate entries of the source, which are not always exact repeats. Identical values can stand only once. “Also recorded” adds a separate entry of the source. Like-named read-outs stand apart in the source and are kept apart here.

Columns and labels:
human D3R = human D3R (Homo sapiens (Human), UniProt P35462); assay: Radioligand competition binding, [3H]N-methylspiperone, HEK293 membranes expressing human D3R; settings: read-out: D3R Ki ± SEM
Outline: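 HEK293 membranes (10 μg protein) incubated 1 h at room temperature in EBSS with 0.2 mM sodium metabisulfite, 0.4 nM [3H]N-methylspiperone and compound (10 μM to 10 pM, triplicate). Nonspecific binding defined with 10 μM butaclamol; GF/B filtration.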

Male Long-Evans rats = assay: Naloxone-precipitated conditioned place aversion (CPA) in chronic oxycodone-treated rats; format: in vivo, rat; settings: 5 or 15 mg/kg, i.p., 1 h before naloxone conditioning
Description: Naloxone-precipitated CPA was tested in a place-conditioning apparatus (Med Associates, St Albans, Vt.) consisting of two side compartments (21 cm×28 cm) and a central gray connecting area (21 cm×12.5 cm); a sliding door separated each compartment from the connecting area. The two side compartments differed in wall color (black vs white), floor type (stainless steel net vs stainless steel grid), and illumination. Before the experiment started, all the animals were allowed to explore the conditioning apparatus for 15 min (preconditioning).
Six groups (n=8/group) of rats were involved in this test, 3 groups were chronically treated with oxycodone (3 mg/kg, i.p.) and the other 3 with saline (1 ml/kg), twice daily (800 and 1800 h). Four hours following the morning injection on Day 4 and 6, the oxycodone treated rats were challenged with saline and immediately confined in one side compartment of the conditioning box for 30 min, while on Day 5 and 7, they were first pretreated with either vehicle or 1 of 2 doses of compound (±)-29 (5 and 15 mg/kg, i.p.) 3 h after morning oxycodone injection, and 1 h later, challenged with naloxone (1 mg/kg, i.p.). […] The time that animals spent in each compartment was recorded. The CPA score was calculated as the time difference (seconds) that animal spent in drug-paired versus saline-paired compartment.

human D3R, sequence (P35462 whole entry): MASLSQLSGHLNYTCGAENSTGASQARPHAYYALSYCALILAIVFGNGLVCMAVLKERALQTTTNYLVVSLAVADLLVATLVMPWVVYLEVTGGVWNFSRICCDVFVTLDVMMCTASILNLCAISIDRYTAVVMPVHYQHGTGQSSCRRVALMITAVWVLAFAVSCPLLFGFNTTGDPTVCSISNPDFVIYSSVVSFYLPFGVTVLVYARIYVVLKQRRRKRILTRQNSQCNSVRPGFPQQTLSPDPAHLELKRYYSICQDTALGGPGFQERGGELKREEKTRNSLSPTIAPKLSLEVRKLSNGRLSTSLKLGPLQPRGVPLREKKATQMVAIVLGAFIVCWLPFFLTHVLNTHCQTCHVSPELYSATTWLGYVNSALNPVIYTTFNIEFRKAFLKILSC

Q: How did the Ki (human D3R; Table 1B, [3H]-N-methylspiperone competition, 96-well plates) turn out when CCc1cc(Cl)c(OC)c(N2CCN(CC(O)CCNC(=O)c3cc4ccccc4[nH]3)CC2)c1 (racemic) [Compound 29, N-(4-(4-(3-chloro-5-ethyl-2-methoxyphenyl)piperazin-1-yl)-3-hydroxybutyl)-1H-indole-2-carboxamide] was run?
A: 7 nM and 6.84 nM

Q: And the Ki (human D3R; Table 1C)?
A: 7.61 ± 1.17 nM

Q: What about the “naloxone-precipitated CPA in chronically oxycodone-treated rats” value (Male Long-Evans rats) of the same compound?
A: dose-dependently attenuated the CPA induced by naloxone; also recorded: significantly blocked CPA induced by naloxone-precipitated withdrawal; also recorded: inhibition of naloxone-precipitated conditioned place aversion
